{"source": "patent US12692249B2", "about": "“WDR5 inhibitors and modulators” (Vanderbilt University, priority 2019, dated 2026)", "key": {"[1]": {"target": "WDR5 (Homo sapiens, UniProt P61964)", "test": "TR-FRET competition binding assay, displacement of 10mer-Thr-FAM MLL peptide probe from His-tagged WDR5", "details": "WDR5-His tag (residues 24-334) 2 nM; 10mer-Thr-FAM 150 nM; 60 min, room temperature; read-out: Ki for Inhibition of WDR5 by TR-FRET assay"}, "[2]": {"system": "MV4:11 human cancer cell lines", "test": "Cellular viability / anti-proliferative assay, CellTiter-Glo, 5 day protocol", "format": "cell-based", "details": "Homo sapiens, MV4-11, 120 h, read-out: GI50 on cellular proliferation of MV4:11 human cancer cell lines", "summary_of_the_method": "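Luminescent ATP-based viability (CellTiter-Glo) after a 5-day exposure gave GI50 via sigmoidal fitting, averaged over two or more replicates. Compounds spanned 22 two-fold steps down from 30 μM at 0.3% DMSO, on 200 MV-4-11 cells per well grown in IMDM plus 10% FBS.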"}, "[3]": {"details": "MV4:11 cells, 5 day incubation, CellTiter-Glo, mean of at least two replicates"}}, "note": "Read-outs that look alike come from different tables or passages of the source.", "data": [{"smiles": "CCc1cc(N2CCn3cnnc3C2)c2nccc(N3CCc4c(cc(Cn5ccnc5)cc4-c4cn(C)nc4C(F)(F)F)C3=O)c2c1", "note": "[Example 208, 7-((1H-Imidazol-1-yl)methyl)-2-(8-(5,6-dihydro-[1,2,4]triazolo[4,3-a]pyrazin-7(8H)-yl)-6-ethylquinolin-4-yl)-5-(1-methyl-3-(trifluoromethyl)-1H-pyrazol-4-yl)-3,4-dihydroisoquinolin-1(2H)-one]", "values": [{"measurement": "Ki", "setting": "[1]", "value": "< 0.02", "unit": "nM"}, {"measurement": "GI50", "setting": "[2]; [3]", "value": 55, "unit": "nM"}]}, {"smiles": "COc1cc(C2CCOCC2)c2nc(C)cc(N3CCc4c(cc(Cn5ccnc5)cc4-c4cn(C)nc4C(F)(F)F)C3=O)c2c1", "note": "[Example 165, 7-((1H-Imidazol-1-yl)methy)-2-(6-methoxy-2-methyl-8-(tetrahydro-2H-pyran-4-yl)quinolin-4-yl)-5-(1-methyl-3-(trifluoromethyl)-1H-pyrazol-4-yl)-3,4-dihydroisoquinolin-1(2H)-one]", "values": [{"measurement": "Ki", "setting": "[1]", "value": 0.042, "unit": "nM"}, {"measurement": "GI50", "setting": "[2]", "value": 129, "unit": "nM"}]}, {"smiles": "CCc1cc2c(N3CCc4c(cc(Cn5ccnc5)cc4-c4cn(C)nc4C(F)(F)F)C3=O)cccc2nc1C", "note": "[Example 117, 7-((1H-Imidazol-1-yl)methyl)-2-(3-ethyl-2-methylquinolin-5-yl)-5-(1-methyl-3-(trifluoromethyl)-1H-pyrazol-4-yl)-3,4-dihydroisoquinolin-1(2H)-one]", "values": [{"measurement": "Ki", "setting": "[1]", "value": 0.036, "unit": "nM"}, {"measurement": "GI50", "setting": "[2]", "value": 64, "unit": "nM"}]}, {"smiles": "COc1ccc2c(Cl)ncc(N3CCc4c(cc(Cn5ccnc5)cc4-c4cn(C)nc4C(F)(F)F)C3=O)c2c1", "note": "[Example 21, 7-((1H-Imidazol-1-yl)methyl)-1′-chloro-6′-methoxy-5-(1-methyl-3-(trifluoromethyl)-1H-pyrazol-4-yl)-3,4-dihydro-1H-[2,4′-biisoquinolin]-1-one]", "values": [{"measurement": "Ki", "setting": "[1]", "value": "< 0.02", "unit": "nM"}, {"measurement": "GI50", "setting": "[2]; [3]", "value": 23, "unit": "nM"}]}, {"smiles": "CCc1cc(COC)c2nc(C)cc(N3CCc4c(cc(Cn5ccnc5)cc4-c4cn(C)nc4C(F)(F)F)C3=O)c2c1", "note": "[Example 156, 7-((1H-Imidazol-1-yl)methyl)-2-(6-ethyl-8-(methoxymethyl)-2-methylquinolin-4-yl)-5-(1-methyl-3-(trifluoromethyl)-1H-pyrazol-4-yl)-3,4-dihydroisoquinolin-1(2H)-one]", "values": [{"measurement": "Ki", "setting": "[1]", "value": 0.02, "unit": "nM"}, {"measurement": "GI50", "setting": "[2]; [3]", "value": 28, "unit": "nM"}]}, {"smiles": "CCc1cc(Br)c2nc(C)cc(N3CCc4c(cc(Cn5ccnc5)cc4-c4cn(C)nc4C(F)(F)F)C3=O)c2c1", "note": "[Example 109, 7-((1H-imidazol-1-yl)methyl)-2-(8-bromo-6-ethyl-2-methylquinolin-4-yl)-5-(1-methyl-3-(trifluoromethyl)-1H-pyrazol-4-yl)-3,4-dihydroisoquinolin-1(2H)-one]", "values": [{"measurement": "Ki", "setting": "[1]", "value": "< 0.02", "unit": "nM"}, {"measurement": "GI50", "setting": "[2]; [3]", "value": 22, "unit": "nM"}]}, {"smiles": "COc1cc(Br)c2nc(C)cc(N3CCc4c(cc(Cn5ccnc5)cc4-c4cn(C)nc4C(F)(F)F)C3=O)c2c1", "note": "[Example 101, 7-((1H-imidazol-1-yl)methyl)-2-(8-bromo-6-methoxy-2-methylquinolin-4-yl)-5-(1-methyl-3-(trifluoromethyl)-1H-pyrazol-4-yl)-3,4-dihydroisoquinolin-1(2H)-one]", "values": [{"measurement": "Ki", "setting": "[1]", "value": 0.023, "unit": "nM"}, {"measurement": "GI50", "setting": "[2]; [3]", "value": "< 20", "unit": "nM"}]}, {"smiles": "COc1ccc2nccc(N3CCc4c(cc(Cn5ccnc5)cc4-c4cn(C)nc4C(F)(F)F)C3=O)c2c1", "note": "[Example 13, 7-((1H-Imidazol-1-yl)methyl)-2-(6-methoxyquinolin-4-yl)-5-(1-methyl-3-(trifluoromethyl)-1H-pyrazol-4-yl)-3,4-dihydroisoquinolin-1(2H)-one]", "values": [{"measurement": "Ki", "setting": "[1]", "value": "< 0.02", "unit": "nM"}, {"measurement": "GI50", "setting": "[2]; [3]", "value": 45, "unit": "nM"}]}, {"smiles": "CCc1cc(C(=O)Nc2ncco2)c2nccc(N3CCc4c(cc(Cn5ccnc5)cc4-c4cn(C)nc4C(F)(F)F)C3=O)c2c1", "note": "[Example 160, 4-(7-((1H-Imidazol-1-yl)methyl)-5-(1-methyl-3-(trifluoromethyl)-1H-pyrazol-4-yl)-1-oxo-3,4-dihydroisoquinolin-2(1H)-yl)-6-ethyl-N-(oxazol-2-yl)quinoline-8-carboxamide]", "values": [{"measurement": "Ki", "setting": "[1]", "value": "< 0.02", "unit": "nM"}, {"measurement": "GI50", "setting": "[2]; [3]", "value": "< 20", "unit": "nM"}]}, {"smiles": "CCc1cc(C(=O)NCCNC(=O)c2ccncc2)c2nccc(N3CCc4c(cc(Cn5ccnc5)cc4-c4cn(C)nc4C(F)(F)F)C3=O)c2c1", "note": "[Example 213, 4-(7-((1H-imidazol-1-yl)methyl)-5-(1-methyl-3-(trifluoromethyl)-1H-pyrazol-4-yl)-1-oxo-3,4-dihydroisoquinolin-2(1H)-yl)-6-ethyl-N-(2-(isonicotinamido)ethyl)quinoline-8-carboxamide]", "values": [{"measurement": "Ki", "setting": "[1]", "value": "< 0.02", "unit": "nM"}, {"measurement": "GI50", "setting": "[2]; [3]", "value": "< 20", "unit": "nM"}]}, {"smiles": "Cc1ccc2cncc(N3CCc4c(cc(Cn5ccnc5)cc4-c4cn(C)nc4C(F)(F)F)C3=O)c2c1", "note": "[Example 16, 7-((1H-Imidazol-1-yl)methyl)-6′-methyl-5-(1-methyl-3-(trifluoromethyl)-1H-pyrazol-4-yl)-3,4-dihydro-1-[2,4′-biisoquinolin]-1-one]", "values": [{"measurement": "Ki", "setting": "[1]", "value": 0.028, "unit": "nM"}, {"measurement": "GI50", "setting": "[2]; [3]", "value": 42, "unit": "nM"}]}, {"smiles": "Cc1ccc2cncc(N3CCc4c(cc(Cc5ncc[nH]5)cc4-c4cn(C)nc4C(F)(F)F)C3=O)c2c1", "note": "[Example 56, 7-((1H-Imidazol-2-yl)methyl)-6′-methyl-5-(1-methyl-3-(trifluoromethyl)-1H-pyrazol-4-yl)-3,4-dihydro-1H-[2,4′-biisoquinolin]-1-one]", "values": [{"measurement": "Ki", "setting": "[1]", "value": 0.031, "unit": "nM"}, {"measurement": "GI50", "setting": "[2]; [3]", "value": 97, "unit": "nM"}]}, {"smiles": "Cc1cc(N2CCc3c(cc(Cn4ccnc4)cc3-c3cn(C)nc3C(F)(F)F)C2=O)c2cc(N3CC(F)C3)cc(C#N)c2n1", "note": "[Example 203, 4-(7-((1H-Imidazol-1-yl)methyl)-5-(1-methyl-3-(trifluoromethyl)-1H-pyrazol-4-yl)-1-oxo-3,4-dihydroisoquinolin-2(1H)-yl)-6-(3-fluoroazetidin-1-yl)-2-methylquinoline-8-carbonitrile]", "values": [{"measurement": "Ki", "setting": "[1]", "value": 0.025, "unit": "nM"}, {"measurement": "GI50", "setting": "[2]; [3]", "value": 49, "unit": "nM"}]}, {"smiles": "CCc1cc(C(=O)NCC2CN(C(=O)C3CCOCC3)C2)c2nccc(N3CCc4c(cc(Cn5ccnc5)cc4-c4cn(C)nc4C(F)(F)F)C3=O)c2c1", "note": "[Example 233, 4-(7-((1H-Imidazol-1-yl)methyl)-5-(1-methyl-3-(trifluoromethyl)-1H-pyrazol-4-yl)-1-oxo-3,4-dihydroisoquinolin-2(1H)-yl)-6-ethyl-N-((1-(tetrahydro-2H-pyran-4-carbonyl)azetidin-3-yl)methyl)quinoline-8-carboxamide]", "values": [{"measurement": "Ki", "setting": "[1]", "value": "< 0.02", "unit": "nM"}, {"measurement": "GI50", "setting": "[2]; [3]", "value": 26, "unit": "nM"}]}, {"smiles": "CCc1cc(N2CCN3CCOC[C@@H]3C2)c2nc(C)cc(N3CCc4c(cc(Cn5ccnc5)cc4-c4cn(C)nc4C(F)(F)F)C3=O)c2c1", "note": "[Example 134, (S)-7-((1H-imidazol-1-yl)methyl)-2-(6-ethyl-8-(hexahydropyrazino[2,1-c][1,4]oxazin-8(1H)-yl)-2-methylquinolin-4-yl)-5-(1-methyl-3-(trifluoromethyl)-1H-pyrazol-4-yl)-3,4-dihydroisoquinolin-1(2H)-one]", "values": [{"measurement": "Ki", "setting": "[1]", "value": 0.03, "unit": "nM"}, {"measurement": "GI50", "setting": "[2]; [3]", "value": "< 20", "unit": "nM"}]}, {"smiles": "CCc1cc(N(C)C)c2nccc(N3CCc4c(cc(Cn5ccnc5)cc4-c4cn(C)nc4C(F)(F)F)C3=O)c2c1", "note": "[Example 35, 7-((1H-Imidazol-1-yl)methyl)-2-(8-(dimethylamino)-6-ethylquinolin-4-yl)-5-(1-methyl-3-(trifluoromethyl)-1H-pyrazol-4-yl)-3,4-dihydroisoquinolin-1(2H)-one]", "values": [{"measurement": "Ki", "setting": "[1]", "value": "< 0.02", "unit": "nM"}, {"measurement": "GI50", "setting": "[2]; [3]", "value": 76, "unit": "nM"}]}, {"smiles": "CCc1cc(OC(F)(F)F)c2nccc(N3CCc4c(cc(Cn5ccnc5)cc4-c4cn(C)nc4C(F)(F)F)C3=O)c2c1", "note": "[Example 176, 7-((1H-imidazol-1-yl)methyl)-2-(6-ethyl-8-(trifluoromethoxy)quinolin-4-yl)-5-(1-methyl-3-(trifluoromethyl)-1H-pyrazol-4-yl)-3,4-dihydroisoquinolin-1(2H)-one]", "values": [{"measurement": "Ki", "setting": "[1]", "value": "< 0.02", "unit": "nM"}, {"measurement": "GI50", "setting": "[2]; [3]", "value": 33, "unit": "nM"}]}]}
